Results published in patent US20260285924A1, “PEPTIDE THERAPEUTICS” (priority 2023, published 2026).
Entries after “also recorded” stand apart in the source; their conditions may differ.

Tests used:
A375-WT [1] = experiment: Pan-Cancer PepTile/PiTile fitness screen (lentiviral 40-mer peptide library, NGS abundance); assay type: cell-based, human; parameters: key: enrichment of each peptide's NGS abundance, early day vs Day 14; settings: Pan-Cancer library, peptide enrichment day 14 vs day 0
Excerpt: FIGS. 13A-13D show Pan-Cancer PiTile Workflow. (A) The Pan-Cancer peptide library is composed of 1081 proteins tiled into 40-mer peptides at every 6 amino acids of the parental protein. The DNA-encoded library is cloned into lentiviral vectors and packaged into lentivirus. (B) A375 cell line was transduced with the Pan-Cancer PiTile library. Genomic DNA was then harvested at Day2 and Day 14 post-transduction and cell populations abundance expressing the different peptides were quantified using Next-Generation Sequencing (NGS). Peptide fitness score was then calculated by the abundance of each peptide at Day2 versus Day 14. Then the fitness signal is mapped over the original amino acid positions of the derived protein. (C) Coverage of the plasmid Pan-Cancer library and peptide-amplicons from Day2 and Day 14 replicated was determined by NGS. (D) Dot plot of the experimental result obtain from screening the Pan-Cancer library in A375 cell line.
(§1) A peptide tilling screen was performed in A375 similarly to a screen done in MDA-MB-231 (FIG. 1) but with a different lentiviral library. The library (Pan-Cancer library) is composed of 1020 genes tiled every 6 amino acids into 40-mer amino acid long peptides. The gene selection was based on their implication in oncogenesis either being as oncogenes or tumor suppressors. The list was built using recent literature that identified new cancer drivers as well as databases such as Uniprot keywords (KW-0656: Proto-oncogene, KW-0043: Tumor suppressor), and Gene Ontology terms (GO1900117: Apoptosis, GO1901979: Cell cycle checkpoint) (FIG. 2). Aside from Human genes, a list of viral genes was also included (KW-1121: Modulation of host cell cycle by virus) that play roles in high jacking cell cycle progression and thus in oncogenesis (FIG. 2).
(§2) The model of study is melanoma, and this disease is stratified into 4 molecular subtypes, BRAF mutants, NRAS mutants, KIT amplification, NF1 mutations (FIG. 3A). The most prominent mutations found in patient affected with metastatic melanomas are BRAF^V600E and NRAS^Q61K (FIG. 3B). RAS play a key role in oncogenesis and resistance to treatments. Indeed, RAS activating mutations is found in ~20% of all human cancers and secondary NRAS mutation leads to acquired resistance to BRAF targeted therapy such as vemurafenib. Thus, the screen was performed in an A375 cell line model which derived from human BRAF^V600E melanoma as well as an engineered A375 transduced with HA-NRAS^Q61K (FIG. 4A, B). Both cell lines grow at a similar rate but the A375-NRAS^Q61K display more than 10-fold resistance to vemurafenib treatment compared to parental A375 (FIG. 4C, D).
(§3) These cells were transduced with the Pan-Cancer library at a low multiplicity of infection (MOI=0.1-0.3). Then, genomic DNA was extracted at day 0 and day 14 post-transduction to quantify the abundance of peptide for each temporal conditions using Next-generation sequencing. Each experimental replicates were deep sequenced with at least 150 million reads and show a coverage between 82-90% of the initial Pan-Cancer Peptide library (FIG. 5). Then, for each individual peptides a cellular fitness score was calculated based on their enrichment between day 0 and day 14. 8090 peptides negatively affecting growth of A375-WT were identified and 8153 peptides for the A375-NRAS^Q61K cell line (FIG. 6). […] Those common hits are found to be tiles from ~100 genes of the Pan-Cancer gene list and show a substantial biological function clustering.
We built a DNA-encoded peptide library composed of all known Human oncogenes and Tumor Suppressors that we fragmented in 40 amino acid long peptides, the Pan-Cancer library. Using lentiviral expression system, we transduced the Pan-Cancer library in A375 cell line. After 14 days of growth, the frequency of each peptide is measured by NGS and this reveal which peptides affect cell fitness. […]

A375-NRAS^Q61K [2] = experiment: Validation assay: cell growth (CCK8, 48 hours after plating) of cells transduced with single peptide tiles; assay type: cell-based, human; settings: peptide overexpression
Excerpt: (§4) FIGS. 9A-9C. (A) Fitness screen validation assay workflow. (B) Validation assay results (C) Fitness screen results.
(§5) All those selected hits mapped to a known protein domain with known roles in protein-protein interaction or protein-DNA interaction. […] When the fold change of every tile on the protein amino acid positions was mapped, functional regions of the protein affecting cell growth were identified. For example, on RAF1, peaks corresponding to the Ras-binding domain (RBD) were identified, and the kinase domain (FIG. 8A). […] In addition, a region of MYC that affect cell growth was identified and mapped on the DNA binding domain bHLH (FIG. 8). […] To validate the results from the screen, A375-WT and -NRAS^Q61K were transduced with GFP_147, or RAF1_78, MYC_384, or KIT_499, or SOS_120 tiles and cell growth measured using CCK8 assay
(§6) 48 hours after plating (FIG. 9A). […] The CR2 domain of BRAF contain a 14-3-3 binding site and play a role in BRAF-MEK autoinhibitory complex which regulates MAPK pathway activation. One of the goals of this contextual PepTile screen was to identify peptides that would impair growth of NRAS cell line but not the parental, to address overall NRAS-driven drug resistance. For instance, more than 6000 peptide hits were detected that are exclusive to A375-NRAS^Q61K (FIG. 6). For example, ARHGAP20 and ARHGAP26 show a very different PepTile profiles between A375-NRAS^Q61K and A375-WT (FIG. 11) and seem to have more of an effect in the A375-NRAS^Q61K condition. Altogether, the Pan-Cancer PepTile screen show the potential of finding new potential peptides to target NRAS melanoma, as well as mapping protein domains involved in cellular growth in a given context.

A375-WT [3] = experiment: as above; assay type: cell-based, human; settings: peptide overexpression
Method: as §4
(§7) FIGS. 14A-14E show PiTiles derived from DNA-binding domains of MYC and SOX17 inhibit transcriptional program. (A) Experimental workflow of A375 cell line individually transduced with lentivirus expressing GFP_147, MYC_384 or SOX17_96. 5 days post-transductions, RNA was harvested for RNA sequencing. Additionally, cells were plated for a 48-hour growth assay. (B) Cell growth of A375 cell line expressing GFP_147 (control), MYC_384 and SOX17_96. […] Red bar=FDR<0.05. We observe a negative peak in bHLHzip domain of MYC as well as HMG box domain of SOX17. Both domains mediated binding to DNA. (D) Principal Component Analysis of RNA-sequencing for both biological replicates of GFP_147, MYC_384 and SOX17_96 expressing cell lines. (E) A375 RNAseq data was analyzed using Gene Set Enrichment Analysis. For MYC_384 versus GFP_147 over ODONNEL_TARGET_OF_MYC_and_TFRC. For SOX17_96 versus GFP_147 over PRANMOOJAGO_SOX4.
as §5, §6

A375-NRAS^Q61K [4] = experiment: Pan-Cancer PepTile fitness screen (lentiviral 40-mer peptide library, NGS abundance); assay type: cell-based, human; settings: peptide enrichment day 14 vs day 0
Method: as §1, §2, §3

[5] = test system: MYC transcriptional program (ODONNEL_TARGET_OF_MYC_and_TFRC); experiment: RNA-sequencing GSEA of A375 expressing MYC_384 versus GFP_147; assay type: cell-based, human; settings: 5 days post-transduction
Method: as §7

MDA-MB-231 = settings: cited from earlier work
[6] = test system: SOX17 transcriptional program (PRANMOOJAGO_SOX4); experiment: RNA-sequencing GSEA of A375 expressing SOX17_96 versus GFP_147; assay type: cell-based, human; settings: 5 days post-transduction
Method: as §7

Substance | A375-WT Fitness Score (A375-WT [1]) | cell growth compared to GFP_147 (A375-NRAS^Q61K [2]) | cell growth compared to GFP_147 (A375-WT [3]) | A375-NRAS Fitness Score (A375-NRAS^Q61K [4]) | GSEA of MYC transcriptional program [5] | hit in previous screen (MDA-MB-231) | cell growth compared to GFP_147 (A375-WT [3]; listed as MYC_384) | GSEA of SOX17 transcriptional program [6]
KIT_84: 40-mer peptide tile of KIT, AA start position 498, Transmembrane domain (GKTSAYFNFAFKGNNKEQIHPHTLFTPLLIGFVIVAGMMC; UniProt P10721 498-537, looked up, fragment) | −3.23 | much less affected | decreases cell growth | −0.77 |  |  |  | 
MYC_65: 40-mer peptide tile of MYC, AA start position 384, bHLH domain (ELKRSFFALRDQIPELENNEKAPKVVILKKATAYILSVQA; UniProt P01106 384-423, looked up, fragment) | −2.50 | not affected |  | −0.47 | downregulation of their respective transcriptional programs | identified and validated | cell growth defect; also recorded: decreases cell growth | 
RAF1_14: 40-mer peptide tile of RAF1, AA start position 78, RBD (LHDCLMKALKVRGLQPECCAVFRLLHEHKGKKARLDWNTD; UniProt P04049 78-117, looked up, fragment) | −1.79 | much less affected | decreases cell growth | −0.50 |  | identified and validated |  | 
SOS1_21: 40-mer peptide tile of SOS1, AA start position 120, HF domain | −2.56 | not affected | decreases cell growth | −0.81 |  |  |  | 
SOX17_17: 40-mer peptide tile of SOX17, AA start position 96, HMG box | −4.49 |  | cell growth defect | −0.77 |  |  |  | downregulation of their respective transcriptional programs
